In one data set the test system is C. auris isolates. Kind of data set: AmB Etest. The following applies: for MIC: Candidozyma auris. It counts as cell-based, Candida auris. On the procedure: Methods: A total of 313 C. auris isolates representing five geographic clades (I—South Asian; II—East Asian; III—South African; IV—South American; V—Iranian) were investigated in this study. Antifungal susceptibility testing (AFST) with AmB was performed with Etest according to the manufacturer instructions. […] Ergosterol biosynthesis pathway genes ERG2 (C-8 sterol isomerase), ERG3 (C-5 sterol desaturase), ERG6 (sterol 24-C-methyltransferase), and ERG11 (lanosterol 14-α-demethylase) were amplified and sequenced. […] AmB susceptibility was then determined for the transformed strain.

Data set [1] deals with Candida sp. and other yeast isolates, planktonic. Kind of data set: MIC of catheter yeast isolates, planktonic form. The format is cell-based. The following applies: read-out: Minimum Inhibitory Concentrations (MIC).
The next data set has as its system Rhizopus arrhizus. In words: E test. It counts as cell-based.
Data set [2] relates to Cryptococcus bacillisporus (AFLP5/VGIII). In words: Treatment of a grey parrot with cryptococcosis. The format is in vivo, grey parrot (Psittacus erithacus). The following applies: in drinking water, 600 mg per litre, after 6 months. An excerpt:
Phenotypic and molecular analysis of the isolated yeast allowed the identification of Cryptococcus bacillisporus (AFLP5/VGIII) as the cause of the infection.

For the next data set, the system named is Trichophyton spp. Kind of data set: Agar-based screening method. The format is cell-based. The following applies: 0.5 McF, 5 days, 30 °C. The procedure:
Inter-experimental variation was evaluated by testing 10 isolates on three different days. Single-centre validation: After determining the optimal conditions for the agar screening method, 112 molecularly identified Trichophyton spp. clinical isolates were tested.

The next data set relates to eumycetoma. Particulars: in vivo; cited from earlier work. An excerpt: Mycetoma: Mycetoma is a chronic, progressive, implantation inflammatory disease characterised by severe and stigmatising deformities, disability, and high morbidity. The disease is caused by fungi (eumycetoma) and several Actinomycetales members (actinomycetoma). Its estimative global burden is 9000 cases. There are no robust epidemiological studies on mycetoma in SA, but it is tconsidered the third most prevalent endemic IM in SA, especially among low socioeconomic adult males living in rural areas from Argentina, Brazil, Colombia and Venezuela, where the principal agents are Madurella spp. a ...

The next data set deals with yeasts. In words: CLSI M27-A3 MIC. The format is cell-based.
The nature of data set [3]: Universal voriconazole prophylaxis in lung transplant recipients, retrospective. It counts as in vivo, human. On the procedure: Materials & Methods: Retrospective study of all adult lung transplant recipients at Copenhagen University Hospital during 2010 to 2019. […] Failure to complete prophylaxis was defined as recieving <9 of the intented 12 weeks of prophylaxis. Liver and kidney toxicity was graded according to Common Terminology Criteria for Adverse Events (CTCAE) criteria (grades 0–4 according to degree of elevation). Grade ≥2 adverse events were classified as high. Lung biopsies were evaluated for acute rejection (grade ≥A2). Calcineurin-inhibitor (CNI) plasma-concentrations were evaluated for off-target episodes. High and low episodes were defined as ≥2 concecutive samples 20% above or below target range limits, respectively. […] Acute rejections were classified as related to low CNI if they occurred 0–30 days from low CNI. Grade ≥2 kidney toxicity was considered related to high CNI if it occurred between two days prior to high CNI to 7 days after.

Data set [4] relates to S. apiospermum (SA) biofilms. In words: Mature biofilm damage, XTT metabolic reduction assay. Particulars: Scedosporium apiospermum, 24 h, read-out: BF MIC50.
The next data set deals with Asp. fumigatus. In words: Triazole resistance agar screening, four-well plate. Particulars: RPMI agar, 1 µg/mL, 7 isolates.
Data set [5] deals with A. fumigatus isolates from BAL. Kind of data set: Sensititre YeastOne Y010, read according to CLSI (2020). It counts as cell-based, Aspergillus fumigatus. The procedure: Materials & Methods: Retrospective evaluation of antifungal susceptibility for A. fumigatus isolates from bronchoalveolar lavage (BAL) fluid in pts with invasive pulmonary aspergillosis was performed. All isolates were obtained from hematological pts admitted to National Research Center for Hematology (Moscow) between 2016 and 2020. All A. fumigatus species were identified by morphology, matrix-assisted laser desorption ionization time of flight mass spectrometry. The azole-resistant strains were identified by ITS, β-tubulin, calmodulin and actine gene sequencing. […] The MIC of antifungal agents were read according to the CLSI (2020). Cyp51A was sequenced to establish the most common resistance mechanisms embedded in azole-resistant A. fumigatus.

In a further data set the test system is Asp. niger. Kind of data set: Triazole resistance agar screening, four-well plate. The following applies: RPMI agar, 1 µg/mL, 14 isolates.
Data set [6] in a line: Voriconazole level monitoring with flucloxacillin co-administration. It counts as in vivo, human. From the text: Methods: Synoptic description of a significant interaction in 2 critically ill patients and analysis of interaction screening in validated data bases.
Data set [7] in a line: Therapeutic drug monitoring of VRC plasma levels. It counts as in vivo, human. The procedure:
Materials & Methods: Patients are aged over 18 years and given antifungal therapy between January 2019–November 2020 in the Hacettepe University Hospitals were included. The study was approved by the University Clinical Research Ethics Committee. Demographics and antifungal treatment periods of the patients were analyzed retrospectively. As of January 2020, VRC plasma levels had started to be analyzed on a weekly basis in the study setting. Plasma VRC levels (target range: 1–5.5 mg/L) were measured by using liquid chromatography—triple quadrupole mass spectrometer (Shimadzu LCMS-8040). The impact of TDM on appropriateness of VRC treatment were evaluated by the numbers of treatment switch and the use of oral route.

A further data set concerns Candida auris isolates. Kind of data set: Disc diffusion, Oxoid discs. Particulars: 25 µg FLU and 5 µg CAS discs; […]. It counts as cell-based. On the technique in general: Agar diffusion results depend on both activity and mobility in agar.

Molecules are shown by their SMILES. Converted amounts (≈) assume the structure as drawn. Like-named read-outs stand apart in the source and are kept apart here.

Procedure for Asp. fumigatus: (§1) All the isolates were identified phenotypically. […] Fungal spores were suspended in normal saline (0.85%) and adjusted to 0.5 McFarland and 50 μL was plated in each well. […] Plates were incubated at 35–37 °C for 72 h in ambient air. The presence or absence of growth was observed visually at 24 h, 48 h, and 72 h.
Procedure for Asp. niger: as §1

For `C[C@@H]1[C@H](O)[C@@H](C)/C=C/C=C/C=C/C=C/C=C/C=C/C=C/[C@H](O[C@@H]2O[C@H](C)[C@@H](O)[C@H](N)[C@@H]2O)C[C@@H]2O[C@](O)(C[C@@H](O)C[C@@H](O)[C@H](O)CC[C@@H](O)C[C@@H](O)CC(=O)O[C@H]1C)C[C@H](O)[C@H]2C(=O)O` [amphotericin B], the “isolates with AmB MIC values ≥2 mg/L” value in the data set with C. auris isolates (19 of 313 isolates) is recorded as 6.1%. In addition, the MIC in the data set on C. auris isolates (read-out: AmB MIC, South African isolate SA18, ERG6 missing base pairs 52–543) is 6 µg/mL (≈ 6.49 µM); in the data set with C. auris isolates (read-out: AmB MIC, susceptible strain after replacement with ERG6 of SA18), > 32 µg/mL; with C. auris isolates (read-out: AmB MIC, susceptible strain with wild-type ERG6), 0.5 µg/mL (≈ 0.541 µM); in [1], 30 to 1000 µg/mL; in the data set with Rhizopus arrhizus, > 32 µg/mL. In addition, the clinical response entry in data set [2] is “good response”.

Consider `CCC(C)n1ncn(-c2ccc(N3CCN(c4ccc(OCC5COC(Cn6cncn6)(c6ccc(Cl)cc6Cl)O5)cc4)CC3)cc2)c1=O` (centres unmarked) [itraconazole], for which the “optimal agar concentration preventing growth of WT isolates” value in the data set with Trichophyton spp. is on record as 1 mg/L. For the same molecule, the Cure rate with eumycetoma was 25–35%. In addition, the MIC was 0.03 µg/mL (≈ 0.0425 µM) with yeasts (four sensitive isolates) and 0.06 to 16 µg/mL (≈ 0.085 to 22.7 µM) against yeasts (the other isolates, drug resistance).

As to `C[C@@H](c1ncncc1F)[C@](O)(Cn1cncn1)c1ccc(F)cc1F` [voriconazole], in [3] (patients of the universal prophylaxis period), the “low CNI plasma-concentration episode related to discontinuation of voriconazole” value came out at 45%. Moreover, the “failed to complete prophylaxis” value in data set [3] (receiving <9 of the intended 12 weeks, 183 patients on voriconazole prophylaxis) was found to be 62%. The “failure to complete prophylaxis due to hepatic toxicity” value in [3] (share of the 114 patients who failed to complete) stood at 72%. The MIC50 in data set [4] came out at 32 µg/mL (≈ 91.6 µM). Besides, the “isolates with growth only in voriconazole well, n (%)” value in the data set on Asp. fumigatus (48 h) is recorded as 0; in the data set on Asp. fumigatus (72 h) it was 3 (42.85); in the data set on Asp. niger (48 h), 0; in the data set on Asp. niger (72 h), 2 (14.28). Further, the “isolates with elevated MIC” value in data set [5] (2 of 35) is listed as 5.7%. In addition, in [5] (Aspergillus fumigatus, BAL, read-out: elevated minimum inhibitory concentrations (MIC)), the MIC was > 8 µg/mL. The voriconazole level is reported as < 0.2 µg/mL in data set [6] (Case 1, 2 days after flucloxacillin interruption, 8 mg/kg bid); < 0.2 µg/mL in data set [6] (Case 1, day 10 of combination with high dose flucloxacillin, 4 mg/kg bid); 3 µg/mL in data set [6] (Case 1, subsequently after 3 days); 4.2 µg/mL in [6] (Case 2, after flucloxacillin stop and dose increase to 6 mg/kg bid); 3.5 µg/mL in data set [6] (Case 2, before flucloxacillin); < 0.5 µg/mL in [6] (Case 2, during high dose flucloxacillin, two levels). The voriconazole level is given as 15.1 µg/mL in [6] (Case 2, further increase, toxic level) and 3.2 µg/mL in data set [6] (Case 2, intravenous maintenance 4 mg/kg bid). The “median plasma level (range)” value in data set [7] (88 levels in 34 patients, LC-MS) is on record as 4.2 (0.2–18.1) mg/L. The “Adverse effects, n (%)” value in data set [7] (Subtherapeutic (<1 mg/L)) is on record as 0 (0.0); in [7] (Supratherapeutic (>5.5 mg/L)) it was 4 (13.8); in [7] (Therapeutic (1–5.5 mg/L)) it was 0 (0.0). Also, the VRC-related adverse effects entry in data set [7] (all at supratherapeutic levels) is listed as “Four”. For the same molecule, the “plasma levels at subtherapeutic range (<1 mg/L), n (%)” value in data set [7] (n = 88) is 14 (15.9%). Moreover, in [7] (n = 88), the “plasma levels at supratherapeutic range (>5.5 mg/L), n (%)” value is reported as 29 (33.0%). The “plasma levels at therapeutic range (1–5.5 mg/L), n (%)” value in [7] (n = 88) is given as 45 (51.1%).

Consider `OC(Cn1cncn1)(Cn1cncn1)c1ccc(F)cc1F` [fluconazole], for which the “median zone diameter (ZD)” value with Candida auris isolates worked out at 0 mm.
